# Measured values taken from ChEMBL document CHEMBL4364241, “Developments in the anticancer activity of structurally modified curcumin: An up-to-date review” (Eur J Med Chem, 2019).
# Key:
# [1] = tested on: HCT-116; test: Antitumor activity against human HCT116 cells after 72 hrs by FMCA method; assay type: functional, cell-based; conditions: HCT-116, 72 h, pooled result: one value given for 5 cell lines, strains, targets or settings
# [2] = tested on: Caco-2; test: Cytotoxicity against human Caco2 Cells after 72 hrs by MTT assay; assay type: functional, cell-based; conditions: Caco-2, 72 h
# [3] = tested on: CHO-K1; test: Cytotoxicity against […] Cells after 72 hrs by MTT assay; assay type: functional, cell-based; conditions: Cricetulus griseus, CHO-K1, 72 h
# [4] = tested on: HepG2; test: Cytotoxicity against human HepG2 Cells after 72 hrs by MTT assay; assay type: functional, cell-based; conditions: HepG2, 72 h
# [5] = tested on: EA.hy 926; test: Cytotoxicity against human EAhy926 Cells after 72 hrs by MTT assay; assay type: functional, cell-based; conditions: EA.hy 926, 72 h
# [6] = tested on: HT-29; test: Cytotoxicity against human HT-29 Cells after 72 hrs by MTT assay; assay type: functional, cell-based; conditions: HT-29, 72 h
# [7] = tested on: MDA-MB-231; test: Anticancer activity against human MDA-MB-231 cells after 72 hrs by MTT assay; assay type: functional, cell-based; conditions: MDA-MB-231, 72 h
# [8] = tested on: SMMC-7721; test: Anticancer activity against human SMMC7721 cells after 72 hrs by MTT assay; assay type: functional, cell-based; conditions: SMMC-7721, 72 h
# [9] = Anticancer activity against human LX2 cells after 72 hrs by MTT assay; assay type: functional, cell-based; conditions: LX-2, 72 h
# [10] = tested on: HCT-116; test: Cytotoxicity against human HCT116 Cells; assay type: functional, cell-based
# [11] = tested on: HeLa; test: Cytotoxicity against human HeLa Cells; assay type: functional, cell-based
# [12] = tested on: HepG2; test: Cytotoxicity against human HepG2 Cells; assay type: functional, cell-based
# [13] = tested on: AGS; test: Cytotoxicity against human AGS Cells; assay type: functional, cell-based
# [14] = tested on: HepG2; test: Cytotoxicity against human HepG2 Cells by MTT/Trypan Blue Exclusion Assay; assay type: functional, cell-based
# [15] = Cytotoxicity against mitoxantrone resistant […] cells expressing BCRP after 15 mins by fluorescence assay; assay type: functional, cell-based; conditions: Canis lupus familiaris, MDCK2, 0.25 h
# [16] = tested on: HT-29; test: Cytotoxicity against human HT-29 Cells; assay type: functional, cell-based
# [17] = tested on: HT-29; test: Cytotoxicity against human HT-29 cells by MTT assay; assay type: functional, cell-based
# [18] = tested on: MCF7; test: Cytotoxicity against human MCF7 cells by MTT assay; assay type: functional, cell-based
# [19] = tested on: PC-3; test: Cytotoxicity against human PC3 cells by MTT assay; assay type: functional, cell-based
# [20] = tested on: A549; test: Cytotoxicity against human A549 Cells by MTT assay; assay type: functional, cell-based
# [21] = tested on: NCI-H460; test: Cytotoxicity against human H460 cells by MTT assay; assay type: functional, cell-based
# [22] = tested on: PANC-1; test: Cytotoxicity against human PANC1 cells by MTT assay; assay type: functional, cell-based
# [23] = tested on: MIA PaCa-2; test: Cytotoxicity against human MIAPaCa2 cells by MTT assay; assay type: functional, cell-based
# [24] = tested on: MCF7; test: Cytotoxicity against human MCF7 Cells after 48 hrs by MTS assay; assay type: functional, cell-based; conditions: MCF7, 48 h
# [25] = Cytotoxicity against human CCD-1059SK Cells after 48 hrs by MTS assay; assay type: functional
# [26] = tested on: HCT-116; test: Growth inhibition of human HCT116 cells relative to control; assay type: functional
# [27] = tested on: KBM5; test: Growth inhibition of human KBM5 cells relative to control; assay type: functional
# [28] = tested on: MCF7; test: Cytotoxicity against human MCF7 Cells after 48 hrs by neutral red dye-based assay; assay type: functional, cell-based; conditions: MCF7, 48 h
# [29] = tested on: AGS; test: Cytotoxicity against human AGS Cells by MTT assay; assay type: functional, cell-based
# [30] = tested on: A549; test: Cytotoxicity against human A549 Cells after 24 hrs by MTT assay; assay type: functional, cell-based; conditions: A549, 24 h
# [31] = tested on: MDA-MB-231; test: Cytotoxicity against human MDA-MB-231 cells; assay type: functional, cell-based
# [32] = tested on: MCF7; test: Cytotoxicity against human MCF7 cells; assay type: functional, cell-based
# [33] = tested on: SW-620; test: Cytotoxicity against human SW620 Cells; assay type: functional, cell-based
smiles,measurement,setting,value
CCCOc1ccc(/C=C2\CN(C(=S)c3ccccc3)C/C(=C\c3ccc(OCCC)c(OC)c3)C2=O)cc1OC,IC50,[1],0.207 µM
O=C(/C=C(O)/C=C/c1cccnc1)/C=C/c1cccnc1,IC50,[2],6.9 µM
same,IC50,[3],7.2 µM
same,IC50,[4],8.3 µM
same,IC50,[5],7.9 µM
same,IC50,[6],8.2 µM
COc1cc(/C=C/C(=O)CC(=O)/C=C/c2ccc(OC(=O)C(N)CC[Se]C)c(OC)c2)ccc1O (configuration not stated),IC50,[7],0.52 µM
same,IC50,[8],0.18 µM
same,IC50,[9],0.62 µM
same,IC50,[4],0.31 µM
COc1cc(/C=C/C(=O)CC(=O)/C=C/c2ccc(OC3O[C@H](CO)[C@@H](O)[C@H](O)[C@H]3O)c(OC)c2)ccc1O (some centres not stated),IC50,[10],5.4 µM
same,IC50,[11],12.5 µM
same,IC50,[12],18.6 µM
same,IC50,[13],5.86 µM
COc1cc(CCC2=NC(=S)N=C(CCc3ccc(O)c(OC)c3)C2=Cc2coc3c(OC)c4occc4c(OC)c3c2=O)ccc1O,IC50,[14],23 µM
O=C(/C=C(O)/C=C/c1ccc[nH]1)/C=C/c1ccc[nH]1,IC50,[2],7.5 µM
same,IC50,[3],6.9 µM
same,IC50,[4],8.2 µM
same,IC50,[5],8.3 µM
same,IC50,[6],8.9 µM
COc1cc(F)c(/C=C2\CNC/C(=C\c3cc(OC)c(OC)cc3F)C2=O)cc1OC,IC50,[15],5.2 µM
COc1cc(/C=C/C(=O)CC(=O)/C=C/c2ccc(OC3O[C@H](CO)[C@@H](O)[C@H](O)[C@H]3O)c(OC)c2)ccc1OC1O[C@H](CO)[C@@H](O)[C@H](O)[C@H]1O (some centres not stated),IC50,[16],41.6 µM
CCOC(OCC)c1ccc(CC2CN(C)CC(Cc3ccc(C(OCC)OCC)cc3)C2=NO)cc1 (configuration not stated),IC50,[17],0.4 µM
same,IC50,[18],0.2 µM
same,IC50,[19],0.2 µM
same,IC50,[20],0.3 µM
same,IC50,[21],0.2 µM
same,IC50,[22],0.4 µM
same,IC50,[23],0.4 µM
COc1cc(/C=C/C(=O)N/N=C/c2ccc(O)c(OC)c2)ccc1O,IC50,[24],43 µM
same,IC50,[25],74.6 µM
COc1cc(/C=C/C(=O)/C=C/c2ccc(OCC(=O)Nc3ccccc3)c(OC)c2)ccc1OCC(=O)Nc1ccccc1,growth inhibition (GI),[26],60.13%
same,growth inhibition (GI),[27],86.76%
COc1ccc(NC(=O)COc2ccc(/C=C/C(=O)/C=C/c3ccc(OCC(=O)Nc4ccc(OC)cc4)c(OC)c3)cc2OC)cc1,growth inhibition (GI),[26],57.96%
same,growth inhibition (GI),[27],83.63%
COc1cc(/C=C/C2=NN(c3nc(/N=C4\CC[C@H]5[C@@H]6CC[C@H]7C[C@@H](OC(C)=O)CC[C@]7(C)[C@H]6CC[C@]45C)cc(=O)[nH]3)C(/C=C/c3ccc(O)c(OC)c3)C2)ccc1O (some centres not stated),IC50,[28],18 µM
CCCC(=O)Oc1ccc(/C=C2\CN(C(=O)c3ccccc3)C/C(=C\c3ccc(OC(=O)CCC)c(OCC)c3)C2=O)cc1OCC,IC50,[1],0.19 µM
COc1cc(/C=C/C(=O)/C(CNc2ccc(S(N)(=O)=O)cc2)=C(O)/C=C/c2ccc(O)c(OC)c2)ccc1O,IC50,[20],1.29 µM
same,IC50,[29],10.2 µM
CCCC(=O)Oc1ccc(/C=C2\CN(C(C)=O)C/C(=C\c3ccc(OC(=O)CCC)c(OC)c3)C2=O)cc1OC,IC50,[1],0.246 µM
O=C(/C=C/c1ccccc1C(F)(F)F)/C=C/c1ccccc1C(F)(F)F,IC50,[30],3.1 µM
COc1ccc(OC)c(/C=C/C(=O)/C=C/c2cc(OC)ccc2OC)c1,IC50,[11],14 µM
same,IC50,[31],1.52 µM
same,IC50,[32],3.02 µM
"O=C(/C=C(\O)c1ccccc1)c1ccccc1O [2',beta-DIHYDROXYCHALCONE]",IC50,[16],7.5 µM
same,IC50,[33],14.5 µM
CC/C(=C(\c1ccccc1)c1ccc(OCCN(C)C)cc1)c1ccccc1 [TAMOXIFEN],IC50,[28],4 µM
